≈ marks a conversion by molar mass, not a printed value.
Columns and labels:
HepG2 [1] = assay: Cytotoxicity against human HepG2 cells assessed as cell growth inhibition incubated for 48 hrs by MTT assay; format: functional, cell-based
MCF7 [2] = assay: Cytotoxicity against human MCF7 cells assessed as cell growth inhibition incubated for 48 hrs by MTT assay; format: functional, cell-based; conditions: MCF7, 48 h
Staphylococcus aureus [3] = assay: Antibacterial activity against Staphylococcus aureus NCIM 2010 assessed as bacterial growth inhibition incubated for 8 hrs by absorbance based assay; format: functional
Bacillus subtilis [4] = assay: Antibacterial activity against Bacillus subtilis NCIM 2079 assessed as bacterial growth inhibition incubated for 8 hrs by absorbance based assay; format: functional
Escherichia coli = assay: Antibacterial activity against Escherichia coli NCIM 2688 assessed as bacterial growth inhibition incubated for 8 hrs by absorbance based assay; format: functional
Pseudomonas aeruginosa = assay: Antibacterial activity against Pseudomonas aeruginosa NCIM 2036 assessed as bacterial growth inhibition incubated for 8 hrs by absorbance based assay; format: functional
Staphylococcus aureus [5] = assay: Antibacterial activity against Staphylococcus aureus NCIM 2010 assessed as reduction in bacterial growth incubated for 8 hrs by absorbance based assay; format: functional, organism-based; conditions: NCIM 2010, 8 h
Bacillus subtilis [6] = assay: Antibacterial activity against Bacillus subtilis NCIM 2079 assessed as reduction in bacterial growth incubated for 8 hrs by absorbance based assay; format: functional, organism-based; conditions: NCIM 2079, 8 h
Staphylococcus coagulans = assay: Antimicrobial activity against Staphylococcus coagulans assessed as microbial growth inhibition incubated for 24 hrs by disc diffusion assay; format: functional
Heyndrickxia coagulans = assay: Antibacterial activity against Bacillus coagulans assessed as bacterial growth inhibition; format: functional
Enterococcus faecalis = assay: Antibacterial activity against Enterococcus faecalis assessed as bacterial growth inhibition; format: functional
Leishmania amazonensis = assay: Anti-promastigote activity against Leishmania amazonensis (IFLA/BR/67/PH8) assessed as promastigote growth inhibition incubated for 72 hrs by microscopic analysis; format: functional, organism-based; conditions: Leishmania amazonensis, IFLA/BR/67/PH8, 72 h
[7] = system: Mycobacterium tuberculosis; assay: Antimycobacterial activity against Mycobacterium tuberculosis H37Ra incubated for 8 to 12 days by XTT reduction menadione assay; format: functional; conditions: time 8-12 day
Epidermophyton floccosum = assay: Antifungal activity against Epidermophyton floccosum 6999 assessed as fungal growth inhibition by spectrophotometry; format: functional
Trichophyton rubrum = assay: Antifungal activity against Trichophyton rubrum 6753 assessed as fungal growth inhibition by spectrophotometry; format: functional
[8] = Antiproliferative activity against human U-87 MG cells assessed as cell growth inhibition by MTT assay; format: functional, cell-based, U-87MG ATCC
NCI-H460 = assay: Antiproliferative activity against human NCI-H460 cells assessed as cell growth inhibition by MTT assay
MKN-45 = assay: Antiproliferative activity against human MKN-45 cells assessed as cell growth inhibition by MTT assay
SMMC-7721 = assay: Antiproliferative activity against human SMMC-7721 cells assessed as cell growth inhibition by MTT assay
A549 = assay: cells; conditions: Homo sapiens
Description: Antiproliferative activity against human A549 cells assessed as cell growth inhibition by MTT assay

HT-29 = assay: cells; conditions: Homo sapiens
Description: Antiproliferative activity against human HT-29 cells assessed as cell growth inhibition by MTT assay

[9] = Inhibition of CaCC (unknown origin) current potentiation; set-up: species or system Homo sapiens
NCI-H1299 = assay: Cytotoxicity against human NCI-H1299 cells assessed as cell growth inhibition incubated for 48 hrs by SRB assay; format: functional, cell-based; conditions: NCI-H1299, 48 h
PC-3 = assay: Cytotoxicity against human PC-3 cells assessed as cell growth inhibition incubated for 2 days by MTT assay; format: functional, cell-based; conditions: PC-3, 48 h
HepG2 [10] = assay: Cytotoxicity against human HepG2 cells assessed as cell growth inhibition incubated for 2 days by MTT assay; format: functional, cell-based; conditions: HepG2, 48 h
MCF7 [11] = assay: Cytotoxicity against human MCF7 cells assessed as cell growth inhibition incubated for 2 days by MTT assay; format: functional, cell-based; conditions: MCF7, 48 h

SMILES: CC(=O)c1ccc(Nc2c(C(=O)/C=C/c3ccccc3)sc(/N=C/c3ccccc3)c2C#N)cc1
- IC50 (HepG2 [1]; Homo sapiens, HepG2, 48 h): 19.1 µM
- IC50 (HepG2 [1]; hepg2): 26.2 µM
- IC50 (MCF7 [2]): 19.1 µM

SMILES: CC1=C(C(=O)O)N2C(=O)[C@@H](NC(=O)[C@H](N)c3ccccc3)[C@H]2SC1 [CEPHALEXIN ANHYDROUS]
- MIC (Staphylococcus aureus [3]): 2.39 µg/mL (≈ 6.88 µM)
- MIC (Bacillus subtilis [4]): 1.87 µg/mL (≈ 5.38 µM)
- MIC (Escherichia coli): 4.94 µg/mL (≈ 14.2 µM)
- MIC (Pseudomonas aeruginosa): > 10 µg/mL
- EC50 (Staphylococcus aureus [5]): 0.77 µM
- EC50 (Bacillus subtilis [6]): 0.25 µM

SMILES: N#Cc1c(NC(=O)c2cc(O)c(O)c(O)c2)sc2c1CCC2
- MIC (Staphylococcus coagulans): 0.32 µM (≈ 0.101 µg/mL)
- MIC (Heyndrickxia coagulans): 0.1 µg/mL (≈ 0.316 µM)
- MIC (Enterococcus faecalis): 0.25 µg/mL (≈ 0.79 µM)

SMILES: COc1cccc2c1C(=O)c1c(O)c3c(c(O)c1C2=O)C[C@@](O)(C(=O)CO)C[C@@H]3O[C@H]1C[C@H](N)[C@H](O)[C@H](C)O1 [DOXORUBICIN]
- IC50 (HepG2 [1]; Homo sapiens, HepG2, 48 h): 4.17 µM

SMILES: N#Cc1c(/N=C/c2c3ccccc3nc3ccccc23)sc2c1CCC2
- EC50 (Leishmania amazonensis): > 500 µM

SMILES: COC(=O)c1c(NC(=O)N[C@@H](C(=O)N[C@@H]2C(=O)N3[C@@H]2SC(C)(C)[C@@H]3C(=O)O)c2ccccc2)sc2c1CCCCCC2
- MIC (Staphylococcus aureus [3]): 0.28 µg/mL (≈ 0.455 µM)
- MIC (Bacillus subtilis [4]): 2.3 µg/mL (≈ 3.74 µM)
- MIC (Escherichia coli): > 10 µg/mL
- MIC (Pseudomonas aeruginosa): > 10 µg/mL
- MIC [7]: 23.3 µg/mL (≈ 37.8 µM)
- EC50 (Staphylococcus aureus [5]): 0.15 µM
- EC50 (Bacillus subtilis [6]): 0.28 µM

SMILES: N#Cc1ccsc1/N=C/c1cccc([N+](=O)[O-])c1
- MIC (Epidermophyton floccosum): 64 µg/mL (≈ 249 µM)
- MIC (Trichophyton rubrum): 128 µg/mL (≈ 498 µM)

SMILES: CCOC(=O)c1c(NC(=O)CC#N)sc(C(=O)Nc2ccccc2)c1-c1ccccc1
- IC50 [8]: 0.62 µM
- IC50 (NCI-H460): 0.49 µM
- IC50 (MKN-45): 0.59 µM
- IC50 (SMMC-7721): 0.53 µM
- IC50 (A549): 0.32 µM
- IC50 (HT-29): 0.63 µM

SMILES: C=CCNC(=S)Nc1sc2c(c1C(=O)OC)CCC(C(C)(C)C)C2 (stereo not drawn)
- IC50 [9]: 49.7 µM

SMILES: CO[C@H]1/C=C/O[C@@]2(C)Oc3c(C)c(O)c4c(O)c(c(/C=N/N5CCN(C)CC5)c(O)c4c3C2=O)NC(=O)/C(C)=C\C=C\[C@H](C)[C@H](O)[C@@H](C)[C@@H](O)[C@@H](C)[C@H](OC(C)=O)[C@@H]1C [RIFAMPIN]
- MIC [7]: 0.042 µg/mL (≈ 0.051 µM)

SMILES: CC(=O)c1ccc(Nc2c(C(=O)/C=C/c3ccccc3)sc(N)c2C#N)cc1
- IC50 (HepG2 [1]; Homo sapiens, HepG2, 48 h): 73.6 µM
- IC50 (MCF7 [2]): 67.5 µM

SMILES: CC(=O)c1ccc(Nc2c(C(C)=O)sc(NC(=O)CC#N)c2C#N)cc1
- IC50 (HepG2 [1]; Homo sapiens, HepG2, 48 h): 56.1 µM
- IC50 (MCF7 [2]): 41.4 µM

SMILES: CCOC(=O)c1c(NC(=O)CC#N)sc(C(=O)Nc2ccc(Cl)cc2)c1-c1ccccc1
- IC50 [8]: 0.43 µM
- IC50 (NCI-H460): 0.43 µM
- IC50 (MKN-45): 0.39 µM
- IC50 (SMMC-7721): 0.73 µM
- IC50 (A549): 0.6 µM
- IC50 (HT-29): 0.62 µM

SMILES: N#Cc1c(NC(=O)CNc2onc3ncccc23)sc2c1CCCC2
- IC50 (NCI-H1299): 18.4 µM

SMILES: N#Cc1c(NC(=O)/C=C/c2ccc(O)cc2)sc2c1CCCC2
- IC50 (PC-3): 5.2 µM
- IC50 (HepG2 [10]): 7.9 µM
- IC50 (MCF7 [11]): 7.5 µM

SMILES: CC1(C)S[C@@H]2[C@H](NC(=O)[C@H](N)c3ccccc3)C(=O)N2[C@H]1C(=O)O [AMPICILLIN]
- MIC (Staphylococcus aureus [3]): 0.28 µg/mL (≈ 0.801 µM)
- MIC (Bacillus subtilis [4]): 0.28 µg/mL (≈ 0.801 µM)
- MIC (Escherichia coli): 0.88 µg/mL (≈ 2.52 µM)
- MIC (Pseudomonas aeruginosa): > 10 µg/mL
- EC50 (Staphylococcus aureus [5]): 0.15 µM
- EC50 (Bacillus subtilis [6]): 0.15 µM

SMILES: COc1ccc(/C=N/NCC(=O)Nc2sc3c(c2C#N)CCCC3)cc1
- IC50 (NCI-H1299): 18.5 µM

SMILES: COC(=O)c1c(NC(=O)Cn2cc(CNC34CC5CC(CC(C5)C3)C4)nn2)sc2c1CCC(C)C2 (stereo not drawn)
- IC50 [9]: 5.4 µM

SMILES: N#Cc1c(NC(=O)c2cc(O)c(O)c(O)c2)sc2c1CCCCC2
- MIC (Staphylococcus coagulans): 0.43 µM (≈ 0.148 µg/mL)
- MIC (Heyndrickxia coagulans): 0.15 µg/mL (≈ 0.436 µM)
- MIC (Enterococcus faecalis): 0.25 µg/mL (≈ 0.726 µM)

SMILES: N#Cc1c(N)sc(C(=O)Nc2ccccc2)c1-c1ccccc1
- IC50 [8]: 8.93 µM
- IC50 (NCI-H460): 9.62 µM
- IC50 (MKN-45): 7.09 µM
- IC50 (SMMC-7721): 5.09 µM
- IC50 (A549): 8.28 µM
- IC50 (HT-29): 8.39 µM

SMILES: CC(C)(C)C1CCc2c(sc(NC3=NCC(CBr)S3)c2C(=O)O)C1 (stereo not drawn)
- IC50 [9]: 24.8 µM

SMILES: COc1ccc2nc3cc(Cl)ccc3c(Nc3sc4c(c3C(N)=O)CCCC4)c2c1
- EC50 (Leishmania amazonensis): 31.8 µM

SMILES: COC(=O)c1ccsc1NC(=O)N[C@@H](C(=O)N[C@@H]1C(=O)N2[C@@H]1SC(C)(C)[C@@H]2C(=O)O)c1ccccc1
- MIC (Staphylococcus aureus [3]): 0.28 µg/mL (≈ 0.526 µM)
- MIC (Bacillus subtilis [4]): 0.55 µg/mL (≈ 1.03 µM)
- MIC (Escherichia coli): > 10 µg/mL
- MIC (Pseudomonas aeruginosa): > 10 µg/mL
- MIC [7]: > 50 µg/mL
- EC50 (Staphylococcus aureus [5]): 0.16 µM
- EC50 (Bacillus subtilis [6]): 0.21 µM

SMILES: COC(=O)c1ccsc1NC(=O)N[C@@H](C(=O)N[C@@H]1C(=O)N2[C@@H]1SC(C)(C)[C@@H]2C(=O)O)c1ccc(O)cc1
- MIC (Staphylococcus aureus [3]): 0.29 µg/mL (≈ 0.529 µM)
- MIC (Bacillus subtilis [4]): 0.32 µg/mL (≈ 0.583 µM)
- MIC (Escherichia coli): > 10 µg/mL
- MIC (Pseudomonas aeruginosa): > 10 µg/mL
- MIC [7]: > 50 µg/mL
- EC50 (Staphylococcus aureus [5]): 0.15 µM
- EC50 (Bacillus subtilis [6]): 0.15 µM

Reference: ChEMBL document CHEMBL5214926, “Recent contribution of medicinally active 2-aminothiophenes: A privileged scaffold for drug discovery” (Eur J Med Chem, 2022)
